Experimental data reported in US10100022B2, “Sphingosine kinase inhibitors” (University of Virginia Patent Foundation, priority 2014, dated 2018).
pKi: −log10 of the molar value. Counter-ions that a name gives are not always drawn.

Columns and labels:
[1] = target: T1, human sphingosine kinase type 2 (hSPHK2) (Homo sapiens, UniProt Q9NRA0); assay: Sphingosine kinase assay, recombinant human SPHK2 ([32P]S1P product, scintillation counting); assay type: biochemical; details: read-out: activity hSPHK2 (range estimate of KI)
T1 construct: purchased; host or cells: Sf9 insect cells (baculovirus)
T1 sequence (Q9NRA0 1-654): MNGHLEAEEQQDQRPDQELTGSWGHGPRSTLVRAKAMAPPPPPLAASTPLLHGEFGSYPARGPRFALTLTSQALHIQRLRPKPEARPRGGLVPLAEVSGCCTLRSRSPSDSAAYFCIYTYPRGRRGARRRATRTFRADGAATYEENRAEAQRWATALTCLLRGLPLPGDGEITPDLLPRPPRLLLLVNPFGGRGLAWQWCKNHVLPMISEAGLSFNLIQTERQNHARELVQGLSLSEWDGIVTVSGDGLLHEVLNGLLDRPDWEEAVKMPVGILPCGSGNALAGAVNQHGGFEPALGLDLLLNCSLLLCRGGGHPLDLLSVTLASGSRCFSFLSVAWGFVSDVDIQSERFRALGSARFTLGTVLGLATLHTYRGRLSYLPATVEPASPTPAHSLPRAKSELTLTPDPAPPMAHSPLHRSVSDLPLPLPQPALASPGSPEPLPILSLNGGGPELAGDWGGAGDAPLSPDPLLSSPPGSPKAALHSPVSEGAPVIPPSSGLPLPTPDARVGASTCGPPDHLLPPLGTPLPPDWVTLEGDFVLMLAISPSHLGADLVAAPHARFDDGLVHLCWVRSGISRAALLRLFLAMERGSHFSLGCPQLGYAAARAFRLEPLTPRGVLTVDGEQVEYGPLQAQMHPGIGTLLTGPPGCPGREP
In short: (§1)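 SPHK1 from cleared lysates of baculovirus-infected Sf9 cells, unpurified; SPHK2 partially purified from Sf9 lysates. Standard sphingosine kinase protocol; [32P]S1P product captured on cation exchange paper and counted by scintillation.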

[2] = target: T2, human sphingosine kinase type 1 (hSPHK1) (Homo sapiens, UniProt Q9NYA1); assay: Sphingosine kinase assay, recombinant human SPHK1 ([32P]S1P product, scintillation counting); assay type: biochemical; details: read-out: activity hSPHK1 (range estimate of KI)
T2 construct: made in house; host or cells: Sf9 insect cells (baculovirus)
T2 sequence (Q9NYA1 whole entry): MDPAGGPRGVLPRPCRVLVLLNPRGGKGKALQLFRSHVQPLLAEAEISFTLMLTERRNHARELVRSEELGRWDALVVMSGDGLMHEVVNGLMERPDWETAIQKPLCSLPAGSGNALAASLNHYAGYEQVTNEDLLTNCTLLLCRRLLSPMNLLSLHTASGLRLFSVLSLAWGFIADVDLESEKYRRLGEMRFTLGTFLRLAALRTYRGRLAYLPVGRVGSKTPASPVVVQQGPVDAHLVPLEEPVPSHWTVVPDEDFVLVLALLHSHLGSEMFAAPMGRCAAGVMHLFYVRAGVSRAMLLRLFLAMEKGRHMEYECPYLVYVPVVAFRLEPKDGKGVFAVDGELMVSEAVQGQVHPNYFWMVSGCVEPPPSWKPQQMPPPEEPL
In short: as §1

pKi [1]	pKi [2]	SMILES
> 6.00	> 6.00	N=C(N)N1CC[C@H](O)[C@H]1c1nc(-c2ccc(OCC3CCCCC3)c(C(F)(F)F)c2)no1 [Compound 96A, amino((2S,3S)-2-(3-(4-(cyclohexylmethoxy)-3-(trifluoromethyl)phenyl)-1,2,4-oxadiazol-5-yl)-3-hydroxypyrrolidin-1-yl)methaniminium chloride]
< 5.00	< 5.00	N=C(N)N1CCC[C@H]1c1nc(-c2ccc3cc(OCC4CCCC4)ccc3c2)no1 [Compound 66A, (S)-amino(2-(3-(6-(cyclopentylmethoxy)naphthalen-2-yl)-1,2,4-oxadiazol-5-yl)pyrrolidin-1-yl)methaniminium chloride]
> 6.00	< 5.00	CCC/C=C\CCOc1ccc(-c2noc([C@@H]3CCCN3C(=N)N)n2)cc1C(F)(F)F [Compound 84A, (S,Z)-amino(2-(3-(4-(hept-3-en-1-yloxy)-3-(trifluoromethyl)phenyl)-1,2,4-oxadiazol-5-yl)pyrrolidin-1-yl)methaniminium 2,2,2-trifluoroacetate]
< 5.00	< 5.00	N=C(N)N1CCC[C@H]1c1nc(-c2ccc3cc(OCCc4ccccc4C(F)(F)F)ccc3c2)no1 [Compound 55A, (S)-amino(2-(3-(6-(2-(trifluoromethyl)phenethoxy)naphthalen-2-yl)-1,2,4-oxadiazol-5-yl)pyrrolidin-1-yl)methaniminium chloride]
> 6.00	5.00 to 6.00	N=C(N)N1CC[C@H](O)[C@H]1c1nc(-c2ccc(OCCCC3CCCCC3)c(C(F)(F)F)c2)no1 [Compound 95A, amino((2S,3S)-2-(3-(4-(3-cyclohexylpropoxy)-3-(trifluoromethyl)phenyl)-1,2,4-oxadiazol-5-yl)-3-hydroxypyrrolidin-1-yl)methaniminium chloride]
< 5.00	< 5.00	COCCCOc1ccc2cc(-c3noc([C@@H]4CCCN4C(=N)N)n3)ccc2c1 [Compound 57A, (S)-amino(2-(3-(6-(3-methoxypropoxy)naphthalen-2-yl)-1,2,4-oxadiazol-5-yl)pyrrolidin-1-yl)methaniminium chloride]
< 5.00	< 5.00	N=C(N)N1C[C@H](O)C[C@H]1c1nc(-c2ccc(OCCCc3ccc4c(c3)OCCO4)c(C(F)(F)F)c2)no1 [Compound 59A]
< 5.00	< 5.00	Cc1ccc(COc2ccc3cc(-c4noc([C@@H]5CCCN5C(=N)N)n4)ccc3c2)cc1 [Compound 64A, (S)-amino(2-(3-(6-((4-methylbenzyl)oxy)naphthalen-2-yl)-1,2,4-oxadiazol-5-yl)pyrrolidin-1-yl)methaniminium chloride]
< 5.00	< 5.00	N=C(N)N1CCC[C@H]1c1nc(-c2ccc3cc(OCCc4cccc(C(F)(F)F)c4)ccc3c2)no1 [Compound 60A, (S)-amino(2-(3-(6-(3-(trifluoromethyl)phenethoxy)naphthalen-2-yl)-1,2,4-oxadiazol-5-yl)pyrrolidin-1-yl)methaniminium chloride]

The remaining lines, values behind:

SMILES	pKi [1]	pKi [2]
CC(C)COc1ccc2cc(-c3noc([C@@H]4[C@@H](O)CCN4C(=N)N)n3)ccc2c1 [Compound 15A, Amino((2S,3S)-3-hydroxy-2-(3-(6-isobutoxynaphthalen-2-yl)-1,2,4-oxadiazol-5-yl)pyrrolidin-1-yl)methaniminium chloride]	< 5.00	5.00 to 6.00
CCCCCOc1ccc2cc(-c3noc([C@@H]4[C@@H](O)CCN4C(=N)N)n3)ccc2c1 [Compound 14B, Amino((2S,3S)-3-hydroxy-2-(3-(6-(pentyloxy)naphthalen-2-yl)-1,2,4-oxadiazol-5-yl)pyrrolidin-1-yl)methaniminium chloride]	> 6.00	> 6.00
N=C(N)N1CC[C@H](O)[C@H]1c1nc(-c2ccc(OCCCCc3ccc(C(F)(F)F)cc3)c(C(F)(F)F)c2)no1 [Compound 25A, amino((2S,3S)-3-hydroxy-2-(3-(3-(trifluoromethyl)-4-(4-(4-(trifluoromethyl)phenyl)butoxy)phenyl)-1,2,4-oxadiazol-5-yl)pyrrolidin-1-yl)methaniminium chloride]	> 6.00	> 6.00
CCCCCCOc1ccc(-c2noc([C@@H]3CCCN3C(=N)N)n2)cc1C(F)(F)F [Compound 12B]	> 6.00	5.00 to 6.00
CCCc1ccc(CCc2ccc(-c3noc([C@@H]4[C@@H](O)CCN4C(=N)N)n3)cc2C(F)(F)F)cc1 [Compound 34A, (2S,3S)-3-hydroxy-2-(3-(4-(4-propylphenethyl)-3-(trifluoromethyl)phenyl)-1,2,4-oxadiazol-5-yl)pyrrolidine-1-carboximidamide hydrochloride]	> 6.00	5.00 to 6.00
N=C(N)N1C[C@H](O)C[C@H]1c1nc(-c2ccc(OCCCc3ccc(Cl)c(Cl)c3)c(C(F)(F)F)c2)no1 [Compound 31A, amino((2S,4R)-2-(3-(4-(3-(3,4-dichlorophenyl)propoxy)-3-(trifluoromethyl)phenyl)-1,2,4-oxadiazol-5-yl)-4-hydroxypyrrolidin-1-yl)methaniminium chloride]	> 6.00	< 5.00
N=C(N)N1CCC[C@H]1c1nc(-c2ccc3cc(OCc4ccc(Br)cc4)ccc3c2)no1 [Compound 53A, (S)-amino(2-(3-(6-((4-bromobenzyl)oxy)naphthalen-2-yl)-1,2,4-oxadiazol-5-yl)pyrrolidin-1-yl)methaniminium chloride]	5.00 to 6.00	< 5.00
CCCCCCCOc1ccc2cc(-c3noc([C@@H]4CCCN4C(=N)N)n3)ccc2c1 [Compound 13A, (S)-amino(2-(3-(6-(heptyloxy)naphthalen-2-yl)-1,2,4-oxadiazol-5-yl)pyrrolidin-1-yl)methaniminium chloride]	5.00 to 6.00	< 5.00
COc1ccc(CCc2ccc(-c3noc([C@@H]4[C@@H](O)CCN4C(=N)N)n3)cc2C(F)(F)F)cc1 [Compound 41A, (2S,3S)-3-hydroxy-2-(3-(4-(4-methoxyphenethyl)-3-(trifluoromethyl)phenyl)-1,2,4-oxadiazol-5-yl)pyrrolidine-1-carboximidamide hydrochloride]	> 6.00	5.00 to 6.00
CCCCc1ccc(CCc2ccc(-c3noc([C@@H]4[C@@H](O)CCN4C(=N)N)n3)cc2C(F)(F)F)cc1 [Compound 37A, (2S,3S)-2-(3-(4-(4-butylphenethyl)-3-(trifluoromethyl)phenyl)-1,2,4-oxadiazol-5-yl)-3-hydroxypyrrolidine-1-carboximidamide hydrochloride]	> 6.00	5.00 to 6.00
N=C(N)N1CC[C@H](O)[C@H]1c1nc(-c2ccc(OCCc3ccc(C(F)(F)F)cc3)c(C(F)(F)F)c2)no1 [Compound 23A, amino((2S,3S)-3-hydroxy-2-(3-(3-(trifluoromethyl)-4-(4-(trifluoromethyl)phenethoxy)phenyl)-1,2,4-oxadiazol-5-yl)pyrrolidin-1-yl)methaniminium chloride]	> 6.00	5.00 to 6.00
N=C(N)N1CCC[C@H]1c1nc(-c2ccc(OCCCc3ccc(Cl)c(Cl)c3)c(C(F)(F)F)c2)no1 [Compound 30A, (S)-amino(2-(3-(4-(3-(3,4-dichlorophenyl)propoxy)-3-(trifluoromethyl)phenyl)-1,2,4-oxadiazol-5-yl)pyrrolidin-1-yl)methaniminium chloride]	> 6.00	< 5.00
CCCCCCCCCOc1ccc(-c2noc([C@@H]3CCCN3C(=N)N)n2)cc1C(F)(F)F [Compound 1B]	> 6.00	< 5.00
CCCCCCCCOc1ccc(-c2noc([C@@H]3CCCN3C(=N)N)n2)cc1F [Compound 11A, (S)-Amino(2-(3-(3-fluoro-4-(octyloxy)phenyl)-1,2,4-oxadiazol-5-yl)pyrrolidin-1-yl)methaniminium chloride]	< 5.00	< 5.00
CCCCCCCCc1ccc(-c2noc([C@@H]3CCCN3C(=N)N)n2)cc1C(F)(F)F [Compound 5A, (S)-Amino(2-(3-(4-octyl-3-(trifluoromethyl)phenyl)-1,2,4-oxadiazol-5-yl)pyrrolidin-1-yl)methaniminium chloride]	> 6.00	< 5.00
N=C(N)N1CC[C@H](O)[C@H]1c1nc(-c2ccc(CCc3ccc(C(F)(F)F)cc3)c(C(F)(F)F)c2)no1 [Compound 40A, (2S,3S)-3-hydroxy-2-(3-(3-(trifluoromethyl)-4-(4-(trifluoromethyl)phenethyl)phenyl)-1,2,4-oxadiazol-5-yl)pyrrolidine-1-carboximidamide hydrochloride]	> 6.00	5.00 to 6.00
CCCCCCCCOc1ccc(-c2noc([C@@H]3C[C@@H](F)CN3C(=N)N)n2)cc1C(F)(F)F [Compound 49A]	> 6.00	< 5.00
